Assay results taken from article PMC10477861, “Efficient Mining of Anticancer Peptides from Gut Metagenome” (Advanced Science, 2023).

Legend:
Details in all cases: 25 µM pACP, 24 h, maintenance medium 1% FBS, ratio of viability to vehicle (PBS), at least three technical repetitions
[1] = system: HCT116; assay: MTT primary screening of anticancer activity, HCT116; format: cell-based, Human
Description: (§1) We successfully chemically synthesized 40 pACPs for the purpose of in vitro or in vivo characterization of their potential anticancer efficacy. In the initial step, we conducted an in vitro primary screen of these 40 pACPs using a panel of 16 different cancer cell lines, including four human CRC lines (HT29, Caco2, HCT116, and […]), as well as 12 other cancer models (Table S4, Supporting Information). We deliberately selected a diverse panel of cell lines to assess the effect of pACPs across various genetic backgrounds. Briefly, the cancer cells were cultured in specific media (details provided in the Experimental Section) and then treated with pACPs at a final concentration of 25 µM. Peptides with minimum effective inhibition concentrations >25 µM were considered non‐ACPs. After exposure to pACPs, the survival rate of the cancer cells was measured using the MTT assay. Remarkably, 39 out of the 40 pACPs (97.5%) induced at least 20% inhibition in at least one cell line (Figure 3a and Table S5, Supporting Information). […] Thus, our method successfully identified pACPs with a very high rate of anticancer effects across various cancer cell lines.
(§2) To evaluate the activity of the 40 potentially effective pACPs, a panel of 16 cancer cell lines was treated, including human CRC cell lines (HT29, Caco‐2, HCT116). Details of the cell lines used, respective media, and culture conditions were presented in Table S1 (Supporting Information). Once the cells reached 60% confluence, it was incubated with each candidate peptide at a concentration of 25 µM pACPs for 24 h. Concurrently, the complete medium was replaced with a maintenance medium containing only 1% FBS. Subsequently, the viability of each cell line using the MTT Cell Proliferation and Cytotoxicity Assay Kit according to the manufacturer's instructions was assessed. […] For the CRC cell line CT26, it was calculated the CC50 value using two peptides (pACP1780 and pACP2283) with relevant data presented in Table S6 (Supporting Information). The calculation was performed using an online tool: https://www.aatbio.com/tools/ic50‐calculator.

[2] = system: MDA-MB-231; assay: MTT primary screening of anticancer activity, MDA-MB-231; format: cell-based
Description: as §1, §2

[3] = system: MDA-MB-468; assay: MTT primary screening of anticancer activity, MDA-MB-468; format: cell-based
Description: as §1, §2

[4] = system: EFM192A; assay: MTT primary screening of anticancer activity, EFM192A; format: cell-based
Description: as §1, §2

[5] = system: CT26; assay: MTT primary screening of anticancer activity, CT26; format: cell-based, Murine
Description: as §1, §2

[6] = system: Hela; assay: MTT primary screening of anticancer activity, Hela; format: cell-based, Human
Description: as §1, §2

[7] = system: MCF7; assay: MTT primary screening of anticancer activity, MCF7; format: cell-based
Description: as §1, §2

[8] = system: HT29; assay: MTT primary screening of anticancer activity, HT29; format: cell-based, Human
Description: as §1, §2

[9] = system: BT474; assay: MTT primary screening of anticancer activity, BT474; format: cell-based
Description: as §1, §2

[10] = system: MDA-MB-453; assay: MTT primary screening of anticancer activity, MDA-MB-453; format: cell-based
Description: as §1, §2

[11] = system: SK-BR-3; assay: MTT primary screening of anticancer activity, SK-BR-3; format: cell-based
Description: as §1, §2

[12] = system: Caco2; assay: MTT primary screening of anticancer activity, Caco2; format: cell-based, Human
Description: as §1, §2

[13] = system: LCC; assay: MTT primary screening of anticancer activity, LCC; format: cell-based
Description: as §1, §2

[14] = system: T47D; assay: MTT primary screening of anticancer activity, T47D; format: cell-based
Description: as §1, §2

[15] = system: MDA-MB-436; assay: MTT primary screening of anticancer activity, MDA-MB-436; format: cell-based
Description: as §1, §2

[16] = system: B16; assay: MTT primary screening of anticancer activity, B16; format: cell-based, Mouse
Description: as §1, §2

Sequence | Survival rate of cancer cells in primary screening [1] | Survival rate of cancer cells in primary screening [2] | Survival rate of cancer cells in primary screening [3] | Survival rate of cancer cells in primary screening [4] | Survival rate of cancer cells in primary screening [5] | Survival rate of cancer cells in primary screening [6] | Survival rate of cancer cells in primary screening [7] | Survival rate of cancer cells in primary screening [8] | Survival rate of cancer cells in primary screening [9] | Survival rate of cancer cells in primary screening [10] | Survival rate of cancer cells in primary screening [11] | Survival rate of cancer cells in primary screening [12] | Survival rate of cancer cells in primary screening [13] | Survival rate of cancer cells in primary screening [14] | Survival rate of cancer cells in primary screening [15] | Survival rate of cancer cells in primary screening [16]
GVPMGSVIKKRRKRMAKKKHRKLLRKTRHQRRNKK [pACP593] | 1.00 | 1.00 | 1.00 | 1.00 | 1.00 | 0.74 | 1.00 | 1.00 | 0.78 | 0.63 | 1.00 | 1.00 | 1.00 | 0.71 | 1.00 | 1.00
GWKKSQCCRNGFYRERGQQQAKNFMSQESFPVRENGE [pACP602] | 1.00 | 1.00 | 1.00 | 1.00 | 1.00 | 1.00 | 0.77 | 1.00 | 1.00 | 1.00 | 1.00 | 1.00 | 1.00 | 0.70 | 1.00 | 0.80
HPGCRKAPGCLCTGVIPSAAIPGTGFEIGGAGCFPLALNCNCATLGKV [pACP631] | 1.00 | 1.00 | 1.00 | 1.00 | 1.00 | 1.00 | 1.00 | 1.00 | 1.00 | 1.00 | 1.00 | 1.00 | 1.00 | 0.79 | 1.00 | 0.76
IPNKKAGSRCLSKKCLLPAKRAFEIHFLTQLTGDIKGI [pACP766] | 1.00 | 1.00 | 1.00 | 1.00 | 1.00 | 0.68 | 0.59 | 0.47 | 0.71 | 1.00 | 1.00 | 0.68 | 1.00 | 0.61 | 0.52 | 1.00
IYRKGTCADCAQGGVCTGHCSNKKTCAALKGVDKIAEDLGRGIK [pACP822] | 1.00 | 1.00 | 1.00 | 1.00 | 1.00 | 1.00 | 0.78 | 1.00 | 1.00 | 1.00 | 1.00 | 1.00 | 1.00 | 0.63 | 1.00 | 0.69
KFCSSFFKSLQFPKAETLVGFKGKALKISNVLIKKSPIIK [pACP860] | 1.00 | 1.00 | 0.60 | 1.00 | 1.00 | 0.78 | 0.78 | 1.00 | 0.70 | 1.00 | 1.00 | 1.00 | 1.00 | 0.75 | 1.00 | 0.77
KGVRGKICKGKRCKQISNSGCDRQEIQEKQENRYRKEKQNKG [pACP886] | 1.00 | 1.00 | 1.00 | 1.00 | 1.00 | 0.73 | 1.00 | 1.00 | 1.00 | 1.00 | 1.00 | 1.00 | 1.00 | 0.69 | 1.00 | 0.78
